# Like-named read-outs stand apart in the source and are kept apart here.
# Columns and labels:
# JAK1 = biological target: T1, JAK1 (Homo sapiens, UniProt P23458); test: JAK1 kinase activity, microfluidic assay (Caliper EZ Reader II); type: biochemical; details: JAK1 5 nM, 1 mM ATP
# T1 construct: purchased Carna Biosciences
# Description: (§1) Testing for JAK1, JAK2 and TYK2 Kinase Activities
# (§2) JAK activity was determined in the reaction buffer 50 mM HEPES, 0.01% Brij35, 10 mM MgCl2, 2 mM DTT by a microfluidic assay. The phosphorylation of a FAM labeled peptide substrate was monitored in the Caliper EZ Reader II (Perkin Elmer). The assay condition for each batch of enzyme (Carna Biosciences) was optimized to obtain 10% conversion rate of peptide substrate.
# (§3) The test compounds were dissolved in DMSO to a stock concentration of 10 mM. Three-fold serially diluted compounds with top concentration of 5 μM were pre-incubated with JAK1, JAK2 or TYK2 for 10 min at ambient temperature. The final DMSO concentration of assay mixture was 1%. […] The reaction was stopped by adding 50 mM EDTA.
# (§4) The percent inhibition was calculated by the following formula:
# (§5) [formula] • wherein • Conversion %_max=the conversion rate in the positive well without addition of compound • Conversion %_sample=the conversion rate of test compounds • Conversion %_min=the conversion rate in the well without addition of enzyme
# (§6) The dose-response (percent inhibition) curve was plotted and IC50 values were determined by GraphPad software.
# JAK2 = biological target: T2, JAK2 (Homo sapiens, UniProt O60674); test: JAK2 kinase activity, microfluidic assay (Caliper EZ Reader II); type: biochemical; details: JAK2 0.125 nM, 1 mM ATP
# T2 construct: purchased Carna Biosciences
# T2 sequence (O60674 whole entry): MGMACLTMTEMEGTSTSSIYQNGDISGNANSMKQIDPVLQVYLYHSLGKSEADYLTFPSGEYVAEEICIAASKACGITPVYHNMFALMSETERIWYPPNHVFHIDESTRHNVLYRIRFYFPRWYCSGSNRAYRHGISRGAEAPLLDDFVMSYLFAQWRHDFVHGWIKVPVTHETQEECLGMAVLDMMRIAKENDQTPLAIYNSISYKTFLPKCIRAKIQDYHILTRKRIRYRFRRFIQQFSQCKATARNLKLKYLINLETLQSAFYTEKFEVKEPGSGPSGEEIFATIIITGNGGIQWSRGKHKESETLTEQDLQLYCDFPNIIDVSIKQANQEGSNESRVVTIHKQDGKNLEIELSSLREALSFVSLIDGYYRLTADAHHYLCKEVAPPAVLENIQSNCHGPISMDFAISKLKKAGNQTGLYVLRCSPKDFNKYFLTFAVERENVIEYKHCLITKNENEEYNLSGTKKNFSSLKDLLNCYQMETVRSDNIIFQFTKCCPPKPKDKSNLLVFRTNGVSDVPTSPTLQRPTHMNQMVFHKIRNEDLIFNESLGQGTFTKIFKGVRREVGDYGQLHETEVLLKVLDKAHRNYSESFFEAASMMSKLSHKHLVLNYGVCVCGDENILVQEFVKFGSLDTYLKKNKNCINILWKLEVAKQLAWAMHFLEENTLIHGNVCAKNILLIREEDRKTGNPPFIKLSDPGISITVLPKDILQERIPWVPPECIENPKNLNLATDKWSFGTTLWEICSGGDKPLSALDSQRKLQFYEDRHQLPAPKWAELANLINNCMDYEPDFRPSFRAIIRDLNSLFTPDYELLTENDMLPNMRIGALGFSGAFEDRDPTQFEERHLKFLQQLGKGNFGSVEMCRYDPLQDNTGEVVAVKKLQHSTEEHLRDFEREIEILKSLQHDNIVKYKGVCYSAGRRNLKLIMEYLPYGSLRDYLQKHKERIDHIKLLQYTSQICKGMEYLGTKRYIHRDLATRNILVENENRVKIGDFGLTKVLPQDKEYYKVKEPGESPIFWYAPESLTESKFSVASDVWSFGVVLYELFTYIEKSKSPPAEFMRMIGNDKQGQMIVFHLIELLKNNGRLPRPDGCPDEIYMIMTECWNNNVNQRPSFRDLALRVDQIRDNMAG
# Description: as §1, §2, §3, §4, §5, §6
# TYK2 = biological target: T3, TYK2 (Homo sapiens, UniProt P29597); test: TYK2 kinase activity, microfluidic assay (Caliper EZ Reader II); type: biochemical; details: TYK2 1 nM, 1 mM ATP
# T3 construct: purchased Carna Biosciences
# T3 sequence (P29597 whole entry): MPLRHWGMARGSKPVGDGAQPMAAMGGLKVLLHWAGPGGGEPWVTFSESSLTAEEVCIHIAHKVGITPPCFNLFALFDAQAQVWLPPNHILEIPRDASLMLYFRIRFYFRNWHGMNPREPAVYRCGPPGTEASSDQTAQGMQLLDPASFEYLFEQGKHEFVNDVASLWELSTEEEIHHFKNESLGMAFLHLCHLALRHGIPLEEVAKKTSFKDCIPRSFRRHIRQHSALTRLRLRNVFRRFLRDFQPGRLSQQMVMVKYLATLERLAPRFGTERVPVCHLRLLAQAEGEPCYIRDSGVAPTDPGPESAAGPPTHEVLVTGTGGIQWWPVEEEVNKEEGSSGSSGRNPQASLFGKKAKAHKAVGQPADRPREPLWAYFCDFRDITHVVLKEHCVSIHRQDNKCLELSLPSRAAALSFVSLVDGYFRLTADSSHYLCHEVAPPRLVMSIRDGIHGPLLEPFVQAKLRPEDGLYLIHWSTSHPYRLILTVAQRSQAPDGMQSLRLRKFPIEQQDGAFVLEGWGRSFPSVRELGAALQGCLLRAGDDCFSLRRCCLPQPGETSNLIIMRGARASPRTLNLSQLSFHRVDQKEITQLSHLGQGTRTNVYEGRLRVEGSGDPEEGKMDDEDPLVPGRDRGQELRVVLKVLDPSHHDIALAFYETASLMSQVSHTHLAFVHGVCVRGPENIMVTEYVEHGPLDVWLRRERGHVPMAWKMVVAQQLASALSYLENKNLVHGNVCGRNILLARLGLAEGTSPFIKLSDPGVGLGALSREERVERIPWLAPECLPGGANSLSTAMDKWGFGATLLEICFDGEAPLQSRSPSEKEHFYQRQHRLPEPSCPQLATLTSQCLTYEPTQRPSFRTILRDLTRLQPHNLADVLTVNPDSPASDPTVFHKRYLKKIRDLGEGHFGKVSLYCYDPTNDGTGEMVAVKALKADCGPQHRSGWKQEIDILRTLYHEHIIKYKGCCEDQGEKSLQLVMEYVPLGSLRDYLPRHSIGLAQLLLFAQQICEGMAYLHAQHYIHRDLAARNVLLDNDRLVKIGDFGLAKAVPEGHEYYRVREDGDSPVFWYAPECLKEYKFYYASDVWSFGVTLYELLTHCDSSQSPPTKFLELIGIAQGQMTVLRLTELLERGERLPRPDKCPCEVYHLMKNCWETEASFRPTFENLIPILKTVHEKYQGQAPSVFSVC
# Description: as §1, §2, §3, §4, §5, §6
# [1] = biological target: T4, Ba/F3-FL-TYK2-P760L cells (Homo sapiens, UniProt P29597, P760L, cells depend on it); test: Anti-proliferative assay, Ba/F3-FL-TYK2-P760L cells (Cell-Titer Glo); type: cell-based; details: 72 h, read-out: BaF3-FL-T2P760L IC50
# T4 construct: BaF3-FL-T2P760L (nM)
# T4 sequence (P29597 whole entry P760L): as the sequence (P29597 whole entry) above, with P760L counted along it
# Outline: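 Compound exposure ran 72 h at 37 °C in 5% CO2 across nine 3-fold concentrations from a 20 μM top dose, added 24 h after seeding 2000 cells/well.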
# Ba/F3-TEL-TYK2 cells = biological target: T5, Ba/F3-TEL-TYK2 cells (Homo sapiens, UniProt P29597); test: Anti-proliferative assay, Ba/F3-TEL-TYK2 cells (Cell-Titer Glo); type: cell-based; details: 72 h, read-out: BaF3-TEL-TYK2 IC50
# T5 construct: fused on or other part: Dimerization domain of TEL (ETV6) fused to the TYK2 kinase domain; P41212 (Transcription factor ETV6)
# T5 sequence (P29597 whole entry, change not shown, the tested form may be a part): as the sequence (P29597 whole entry) above
# Description: (§7) Anti-Proliferative Assay Dimerization domain of Tel protein fused with JAK kinase domain was permanently transduced into Ba/F3 cells, whose proliferation is dependent on JAK activity in the absence of IL-3 induction. These engineered Ba/F3 cells (Ba/F3-FL-TYK2-[…], Ba/F3-TEL-TYK2 and Ba/F3-TEL-JAK2) were used to monitor JAK inhibitory activities of the compounds in the cellular. […] Cells were seeded at 2000/well of white flat bottom 96-well plates. The well containing medium only was used as background control. After 24 h growth, cells were treated with compounds. The test compounds were dissolved in DMSO to a stock concentration of 20 mM. 3-fold serially diluted compounds for 9 concentrations with top concentration of 20 μM was added into the each well. […] The cells continued to grow at 37° C. in 5% CO2 for 72 h after compound treatment. The viability was measured by cellular ATP determination using the Cell-Titer Glo luciferase reagent (Promega). The Luminescence value was recorded by a multi-label reader Envision (PerkinElmer).
# Ba/F3-TEL-JAK2 cells = biological target: T6, Ba/F3-TEL-JAK2 cells (Homo sapiens, UniProt O60674); test: Anti-proliferative assay, Ba/F3-TEL-JAK2 cells (Cell-Titer Glo); type: cell-based; details: 72 h, read-out: BaF3-TEL-JAK2 IC50
# T6 construct: fused on or other part: Dimerization domain of TEL (ETV6) fused to the JAK2 kinase domain; P41212 (Transcription factor ETV6)
# T6 sequence (O60674 whole entry, change not shown, the tested form may be a part): as the sequence (O60674 whole entry) above
# Description: as §7
# [2] = Microsomal metabolic stability assay; type: in vitro ADME; details: pH 7.4, 0.5 mg/mL protein, 1 μM compound
# Outline: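 Parent loss was tracked by LC/MS/MS at 0, 5, 15, 30 and 45 min, with half-life derived from the ln(% remaining)–time slope. Incubation at 37 °C, pH 7.4 phosphate/EDTA buffer: 0.5 mg/mL microsomes, 1 μM compound, NADPH-regenerated (2 mM).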
# TYK2-JH2 domain = biological target: T7, TYK2-JH2 domain (Homo sapiens, UniProt P29597); test: Binding activity test for JH2 domain of TYK2 (Tb-antibody/tracer FRET)
# T7 construct: IC50 on JH2 domain activity (nM)
# T7 sequence (P29597 589-875 limits assumed): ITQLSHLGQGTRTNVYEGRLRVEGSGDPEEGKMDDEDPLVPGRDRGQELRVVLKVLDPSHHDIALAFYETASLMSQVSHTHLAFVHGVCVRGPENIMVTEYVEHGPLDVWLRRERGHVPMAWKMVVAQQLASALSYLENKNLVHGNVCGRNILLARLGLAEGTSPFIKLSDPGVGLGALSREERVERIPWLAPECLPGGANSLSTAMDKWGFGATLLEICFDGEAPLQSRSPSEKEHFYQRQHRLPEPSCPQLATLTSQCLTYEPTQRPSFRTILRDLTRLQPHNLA
# Outline: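 FRET read-out after 60 min at 25° C plus overnight at 4° C; tracer displacement detected via Tb-labelled antibody on the JH2 domain. Dose-response used 11 points at 3-fold dilution.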
# [3] = Plasma protein binding by equilibrium dialysis; type: in vitro ADME; details: human plasma, equilibrium dialysis 5 hours at 37° C.; read-out: % Bound (human) (converted)
# Outline: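 Compound spiked into plasma at 0.2 and 2 μM was dialyzed against PBS for 5 h at 37° C with shaking, in duplicate. Plasma and buffer chambers were matrix-matched, protein-precipitated and analysed by LC-MS/MS to derive % unbound, % bound and % recovery.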
# [4] = dog liver microsomes, read-out: Dog LM Clint
# [5] = dog liver microsomes, read-out: Dog LM T½
# [6] = human liver microsomes, read-out: Human LM Clint
# [7] = human liver microsomes, read-out: Human LM T½
# [8] = rat liver microsomes, read-out: Rat LM Clint
# [9] = rat liver microsomes, read-out: Rat LM T½
# T1 sequence (P23458 whole entry): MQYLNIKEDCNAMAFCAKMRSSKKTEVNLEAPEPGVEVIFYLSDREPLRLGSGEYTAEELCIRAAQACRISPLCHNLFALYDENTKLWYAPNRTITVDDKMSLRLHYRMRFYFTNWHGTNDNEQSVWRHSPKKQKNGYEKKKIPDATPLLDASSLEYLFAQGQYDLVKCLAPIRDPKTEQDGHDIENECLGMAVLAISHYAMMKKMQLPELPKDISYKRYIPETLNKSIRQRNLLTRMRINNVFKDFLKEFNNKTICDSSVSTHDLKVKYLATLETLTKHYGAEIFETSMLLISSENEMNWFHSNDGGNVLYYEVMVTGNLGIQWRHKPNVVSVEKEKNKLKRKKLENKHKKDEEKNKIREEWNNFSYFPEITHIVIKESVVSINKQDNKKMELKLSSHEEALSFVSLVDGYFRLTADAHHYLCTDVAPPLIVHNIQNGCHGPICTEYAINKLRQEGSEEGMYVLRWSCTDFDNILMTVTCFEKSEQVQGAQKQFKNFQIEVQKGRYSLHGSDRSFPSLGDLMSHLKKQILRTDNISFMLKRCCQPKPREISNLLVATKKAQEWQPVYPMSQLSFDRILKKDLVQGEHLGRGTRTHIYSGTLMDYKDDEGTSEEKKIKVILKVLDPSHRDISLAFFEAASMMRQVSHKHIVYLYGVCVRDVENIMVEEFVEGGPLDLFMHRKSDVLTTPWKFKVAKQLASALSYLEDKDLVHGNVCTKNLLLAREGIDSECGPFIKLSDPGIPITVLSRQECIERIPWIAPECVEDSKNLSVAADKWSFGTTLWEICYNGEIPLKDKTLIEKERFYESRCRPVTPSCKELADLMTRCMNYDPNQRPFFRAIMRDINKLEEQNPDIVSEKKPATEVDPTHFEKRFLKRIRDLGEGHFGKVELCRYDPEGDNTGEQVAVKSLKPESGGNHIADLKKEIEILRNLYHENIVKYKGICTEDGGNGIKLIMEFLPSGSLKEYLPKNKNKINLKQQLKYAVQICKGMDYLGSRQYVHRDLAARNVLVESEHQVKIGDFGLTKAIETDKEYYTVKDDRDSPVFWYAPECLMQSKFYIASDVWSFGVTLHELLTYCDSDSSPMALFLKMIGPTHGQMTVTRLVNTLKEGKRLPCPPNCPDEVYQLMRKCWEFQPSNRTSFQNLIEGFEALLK
IC50 (JAK1) [µM],IC50 (JAK2) [µM],IC50 (TYK2) [µM],GI50 [1] [µM],GI50 (Ba/F3-TEL-TYK2 cells) [µM],GI50 (Ba/F3-TEL-JAK2 cells) [µM],"microsomal CLint at 1 μM [2, 4] [µL/min/mg]","half-life at 1 μM [2, 5] [h]","microsomal CLint at 1 μM [2, 6] [µL/min/mg]","half-life at 1 μM [2, 7] [h]","microsomal CLint at 1 μM [2, 8] [µL/min/mg]","half-life at 1 μM [2, 9] [h]",IC50 (TYK2-JH2 domain) [nM],fraction unbound at 5 h [3],Compound
> 5,> 5,> 5,0.0482,> 20,0.789,< 18.6,> 3.1,21.2,2.72,63.8,0.905,,,"CNC(=O)c1nnc2cc1Nc1cc(cc(-c3ncn(C)n3)c1OC)COCc1cccc(n1)N2 [Example 35, 10-Methoxy-N-methyl-11-(1-methyl-1H-1,2,4-triazol-3-yl)-15-oxa-2,4,5,8,21-pentaazatetracyclo[15.3.1.1^{3,7}.1^{9,13}]tricosa-1(21),3,5,7(23),9(22),10,12,17,19-nonaene-6-carboxamide]"
,,,0.157,> 20,7.47,,,,,,,,,"CCC(=O)c1cnc(Nc2ccc(F)cc2)nc1Nc1cccc(-c2ncn(C)n2)c1OC [Example 8, 1-(2-((4-Fluorophenyl)amino)-4-((2-methoxy-3-(1-methyl-1H-1,2,4-triazol-3-yl)phenyl)amino)pyrimidin-5-yl)propan-1-one]"
,,,0.125,7.18,4.35,,,,,,,,,"CNC(=O)c1cnc2cc1Nc1cc(cc(-c3ncn(C)n3)c1OC)COCc1cccc(n1)N2 [Example 34, 10-Methoxy-N-methyl-11-(1-methyl-1,2,4-triazol-3-yl)-15-oxa-2,4,8,21-tetrazatetracyclo[15.3.1.13,7.19,13]tricosa-1(21),3(23),4,6,9,11,13(22),17,19-nonaene-6-carboxamide]"
,,,0.173,1.96,0.892,,,,,,,,,"CNC(=O)c1cnc2nc1Nc1cc(cc(-c3ncn(C)n3)c1OC)COCc1cc(ccc1F)N2 [Example 36, 18-Fluoro-10-methoxy-N-methyl-11-(1-methyl-1H-1,2,4-triazol-3-yl)-15-oxa-2,4,8,23-tetraazatetracyclo[15.3.1.1^{3,7}.1^{9,13}]tricosa-1(20),3,5,7(23),9(22),10,12,17(21),18-nonaene-6-carboxamide]"
> 5,0.173,> 5,0.078,2.53,1.18,101,0.572,13.3,4.36,45.7,1.26,,,"[2H]C([2H])([2H])NC(=O)c1cnc(Nc2ccc(F)cc2)nc1Nc1cccc(-c2ncn(C)n2)c1OC [Example 20, 2-(4-Fluoroanilino)-4-[2-methoxy-3-(1-methyl-1,2,4-triazol-3-yl)anilino]-N-(trideuteriomethyl)pyrimidine-5-carboxamide]"

# The remaining lines, values behind:
Compound,IC50 (JAK1) [µM],IC50 (JAK2) [µM],IC50 (TYK2) [µM],GI50 [1] [µM],GI50 (Ba/F3-TEL-TYK2 cells) [µM],GI50 (Ba/F3-TEL-JAK2 cells) [µM],"microsomal CLint at 1 μM [2, 4] [µL/min/mg]","half-life at 1 μM [2, 5] [h]","microsomal CLint at 1 μM [2, 6] [µL/min/mg]","half-life at 1 μM [2, 7] [h]","microsomal CLint at 1 μM [2, 8] [µL/min/mg]","half-life at 1 μM [2, 9] [h]",IC50 (TYK2-JH2 domain) [nM],fraction unbound at 5 h [3]
"CCn1ccc2scc(Nc3cc(Nc4ccc(F)cn4)ncc3C(=O)NC)c2c1=O [Example 18, 4-((5-Ethyl-4-oxo-4,5-dihydrothieno[3,2-c]pyridin-3-yl)amino)-6-((5-fluoropyridin-2-yl)amino)-N-methylnicotinamide]",> 5,> 5,> 5,0.0484,> 20,> 20,,,,,,,,
"CNC(=O)c1cnc(Nc2ccc(F)cn2)cc1Nc1csc2ccn(C)c(=O)c12 [Example 15, 6-((5-Fluoropyridin-2-yl)amino)-N-methyl-4-((5-methyl-4-oxo-4,5-dihydrothieno[3,2-c]pyridin-3-yl)amino)nicotinamide]",,,,0.0236,> 20,> 20,,,,,,,,
"CCn1ccc2c(c(Nc3cc(Nc4ccc(F)cn4)ncc3C(=O)NC)cn2C)c1=O [Example 10, 4-((5-Ethyl-1-methyl-4-oxo-4,5-dihydro-1H-pyrrolo[3,2-c]pyridin-3-yl)amino)-6-((5-fluoropyridin-2-yl)amino)-N-methylnicotinamide]",> 5,> 5,> 5,0.0545,4.03,3.73,27.1,2.13,88.3,0.654,137,0.422,,
"CNC(=O)c1cnc(NC(=O)C2CC2)cc1Nc1cn(C)c2c(F)cn(C)c(=O)c12 [Example 14, 6-(Cyclopropanecarboxamido)-4-((7-fluoro-1,5-dimethyl-4-oxo-4,5-dihydro-1H-pyrrolo[3,2-c]pyridin-3-yl)amino)-N-methylnicotinamide]",> 5,> 5,> 5,0.33,> 20,> 20,6.43,3.59,23.6,0.98,101,0.228,,
"[2H]C([2H])([2H])NC(=O)c1cnc(Nc2ccc(C#N)cc2)nc1Nc1cccc(-c2ncn(C)n2)c1OC [Example 28, 2-((4-Cyanophenyl)amino)-4-((2-methoxy-3-(1-methyl-1H-1,2,4-triazol-3-yl)phenyl)amino)-N-(methyl-d3) pyrimidine-5-carboxamide]",,,,0.065,> 20,> 20,4.77,4.84,2.46,9.39,14.3,1.61,,
"[2H]C([2H])([2H])NC(=O)c1cnc(Nc2ccc(Cl)cc2)nc1Nc1cccc(-c2ncn(C)n2)c1OC [Example 3, 2-((4-Chlorophenyl)amino)-4-((2-methoxy-3-(1-methyl-1H-1,2,4-triazol-3-yl)phenyl)amino)-N-(methyl-d3) pyrimidine-5-carboxamide]",,,,0.0707,5.44,2.3,,,,,,,,
"[2H]C([2H])([2H])NC(=O)c1cnc(Nc2cccc(C#N)c2)nc1Nc1cccc(-c2ncn(C)n2)c1OC [Example 19, 2-(3-Cyanoanilino)-4-[2-methoxy-3-(1-methyl-1,2,4-triazol-3-yl)anilino]-N-(trideuteriomethyl)pyrimidine-5-carboxamide]",> 5,> 5,> 5,0.0349,> 20,4.96,71.2,0.812,4.46,12.9,43.6,1.32,0.098,0.038

# Reference: US20250115597A1, “TYK2 INHIBITORS AND COMPOSITIONS AND METHODS THEREOF” (LYNK PHARMACEUTICALS CO. LTD., priority 2021, published 2025)
